Results: patent US10316050B2, “PT (IV) complexes containing 4,4′-disubstituted-2,2′-bipyridyl and their use in cancer therapy” (THE BOARD OF REGENTS OF THE NEVADA SYSTEM OF HIGHER …, priority 2014, dated 2019)

Assays:
DU145 cells = experiment: Hoechst/PI staining, confocal microscopy, DU145; assay type: cell-based, human
Description: Cells (100,000 to 125,000) were seeded into 35 mm dishes and incubated for 48 hours at 37° C. The cells were treated with control, Pt(IV)-4C, or Pt(IV)-5C, and while in the dark, the cells were washed 2× with 1 mL PBS. After washing, 1 mL of a 2 μg/mL Hoechst 33342 and 10 μg/mL PI solution (in PBS) was added, and the cells were incubated for 15 minutes at room temperature. Images were acquired within 5 minutes with a Nikon A1R confocal laser scanning microscopy system (CLSM) mounted on a Nikon Eclipse Ti. At least three random areas on each dish were imaged.
Analysis of Hoechst (Ho) and PI staining by confocal microscopy also was performed to detect cell death. PI stains cells with membrane damage, whereas Ho stains both live and apoptotic cells (although apoptotic cells have more intense Ho fluorescence). […] Additionally, unlike A549, the PI positive cells in Pt(IV)-4C treated cells were higher than Pt(IV)-5C treated cells.

[1] = system: cleaved-PARP in A549 cells; experiment: Flow cytometry of cleaved-PARP, A549; assay type: cell-based, human; conditions: A549, 25 μM Pt(IV)-4C or 7.5 μM Pt(IV)-5C for 5 hours, analyzed 12 hours post treatment
Description: FIG. 12 is a series of histograms indicating Pt(IV)-4C and Pt(IV)-5C-induced cleavage of PARP in A549 cells (top panels) and in DU145 cells (bottom). A549 cells were treated for 5 hours with control (left), 25 μM Pt(IV)-4C (center), or 7.5 μM Pt(IV)-5C (right), and analyzed 12 hours post treatment. DU145 cells were treated for 2 hours with control (left), 10 μM Pt(IV)-4C (center), or 2.5 μM Pt(IV)-5C (right), and analyzed seven hours post treatment. Data are representative of three independent experiments.
Cells (200,000 to 250,000) were seeded in 60 mm dishes and incubated at 37° C. in a humidified, 5% CO2 atmosphere for 2 days to reach ˜50-60% confluence. The cells were treated with the platinum complexes as indicated, the floating cells were collected, and both attached and floating cells were washed 2× with PBS. The cells were resuspended in fresh medium and incubated as indicated. After incubation, both the floating and attached cells were collected and fixed by incubation in 4% formaldehyde for 10 minutes at room temperature. The fixed cells were pelleted and permeabilized by incubation in 500 μL of ice-cold methanol at 4° C. for 10 minutes. The samples were stored at −20° C. until analysis. For analysis, the cells were pelleted and washed 2× with 1% BSA in PBS. […] After washing 2× with 1% BSA, the cells were resuspended in PBS and analyzed on a Becton Dickinson FACS Calibur. […]

[2] = Solubility in water and culture medium; assay type: physicochemical; conditions: stock DMSO solution diluted in the culture medium
Description: It should be noted that while the solubility of the Pt(IV) complexes in organic solvents were increased compared to their Pt(II) precursors, they were still poorly soluble in water. Thus, Pt(IV)-1C to Pt(IV)-3C were limited to a highest concentration of 100 μM. […] Testing of Pt(IV)4C therefore was limited to 25 μM.

Compound | Hoechst and PI staining compared to control (DU145 cells) | fold increase of cleaved-PARP [1] [fold] | concentration at which the complex precipitated out of solution [2] [µM]
CC(=O)[O][Pt]([Cl])([Cl])[O]C(C)=O.CCCCCOc1ccnc(-c2cc(OCCCCC)ccn2)c1 [Pt(IV)-5C, [Pt(IV)Cl2(OAc)2(4,4′-dipentoxy-2,2′-bipyridine)]] | more PI positive staining than Ho staining | ~7 | 
[Pt(IV)Cl2(OAc)2(4,4′-dibutoxy-2,2′-bipyridine)] [Pt(IV)-4C] |  | ~7 | ≥ 30
